According to ChEMBL document CHEMBL1201862, “PubChem BioAssay data set” (2004):
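Step 1: Grow cells in 96-well plates. Step 2: Expose to compound for 48 hours at 5 concentrations. Step 3: Interpolate endpoints linearly; if unreached, use highest concentration. GI50: concentration for 50% inhibition of growth.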 Calls of active or inactive are those of the source. Cut-off read from the data, not from the text of the source: active = GI50 up to about 1.1 µM and inactive = higher.

Experiments:
Test in all cases: NCI anticancer screen, dose series, 48 h
OVCAR-4 = system: OVCAR-4
TK-10 = system: TK-10
LOX IMVI = system: LOX IMVI
BT-549 = system: BT-549
IGROV-1 = system: IGROV-1
NCI/ADR-RES = system: NCI/ADR-RES
SF-268 = system: SF-268
EKVX = system: EKVX
MDA-MB-435 = system: MDA-MB-435
HCT-116 = system: HCT-116
HL-60 = system: HL-60
NCI-H460 = system: NCI-H460
DU-145 = system: DU-145
HT-29 = system: HT-29
MDA-MB-231 = system: MDA-MB-231
UO-31 = system: UO-31
HOP-62 = system: HOP-62
MCF7 = system: MCF7
Hs-578T = system: Hs-578T
COLO 205 = system: COLO 205
M14 = system: M14
A498 = system: A498
HCT-15 = system: HCT-15
RPMI-8226 = system: RPMI-8226
A549 = system: A549
SF-295 = system: SF-295
OVCAR-5 = system: OVCAR-5
CAKI-1 = system: CAKI-1
NCI-H23 = system: NCI-H23
NCI-H522 = system: NCI-H522
MDA-N = system: MDA-N
K562 = system: K562
UACC-62 = system: UACC-62
SN12C = system: SN12C
T47D = system: T47D
SK-MEL-5 = system: SK-MEL-5
SF-539 = system: SF-539
OVCAR-8 = system: OVCAR-8
ACHN = system: ACHN
RXF 393 = system: RXF 393
U-251 = system: U-251
MOLT-4 = system: MOLT-4
KM12 = system: KM12
SNB-19 = system: SNB-19
Malme-3M = system: Malme-3M
HOP-92 = system: HOP-92
OVCAR-3 = system: OVCAR-3
NCI-H226 = system: NCI-H226
SK-OV-3 = system: SK-OV-3
PC-3 = system: PC-3
SW-620 = system: SW-620
SR = system: SR
SK-MEL-28 = system: SK-MEL-28
786-0 = system: 786-0
SNB-75 = system: SNB-75
UACC-257 = system: UACC-257
SK-MEL-2 = system: SK-MEL-2
HCC 2998 = system: HCC 2998
CCRF-CEM = system: CCRF-CEM

How did the GI50 (OVCAR-4) turn out when `CC(C)CC(NC=O)C(=O)NC(Cc1ccccc1)NC(=O)CNC(=O)C(C)NC(=O)OC(C)(C)C` (configuration not stated) was run?
The GI50 was > 100 µM (inactive).

What about the GI50 (TK-10) of the same compound?
The GI50 was > 100 µM (inactive).

And the GI50 (LOX IMVI)?
The GI50 was > 100 µM (inactive).

What about the GI50 (BT-549) of the same compound?
The GI50 was > 100 µM (inactive).

What about the GI50 (IGROV-1) of the same compound?
The GI50 was > 100 µM (inactive).

What about the GI50 (NCI/ADR-RES) of the same compound?
Its GI50 is > 100 µM (inactive).

And the GI50 (SF-268)?
Its GI50 is > 100 µM (inactive).

And the GI50 (EKVX)?
The GI50 was > 100 µM (inactive).

What about the GI50 (MDA-MB-435) of the same compound?
Its GI50 is > 100 µM (inactive).

And the GI50 (HCT-116)?
The GI50 was > 100 µM (inactive).

And the GI50 (HL-60)?
Its GI50 is > 100 µM (inactive).

What about the GI50 (NCI-H460) of the same compound?
The GI50 was > 100 µM (inactive).

What about the GI50 (DU-145) of the same compound?
The GI50 was > 100 µM (inactive).

And the GI50 (HT-29)?
Its GI50 is > 100 µM (inactive).

What about the GI50 (MDA-MB-231) of the same compound?
Its GI50 is > 100 µM (inactive).

And the GI50 (UO-31)?
The GI50 was > 100 µM (inactive).

And the GI50 (HOP-62)?
The GI50 was > 100 µM (inactive).

And the GI50 (MCF7)?
The GI50 was > 100 µM (inactive).

What about the GI50 (Hs-578T) of the same compound?
Its GI50 is > 100 µM (inactive).

What about the GI50 (COLO 205) of the same compound?
Its GI50 is > 100 µM (inactive).

And the GI50 (M14)?
The GI50 was > 100 µM (inactive).

What about the GI50 (A498) of the same compound?
Its GI50 is 21.9 µM (inactive).

And the GI50 (HCT-15)?
The GI50 was greater than 100 µM.

And the GI50 (RPMI-8226)?
The GI50 was > 100 µM (inactive).

What about the GI50 (A549) of the same compound?
Its GI50 is > 100 µM (inactive).

And the GI50 (SF-295)?
Its GI50 is > 100 µM (inactive).

And the GI50 (OVCAR-5)?
The GI50 was > 100 µM (inactive).

And the GI50 (CAKI-1)?
Its GI50 is > 100 µM (inactive).

And the GI50 (NCI-H23)?
The GI50 was > 100 µM (inactive).

What about the GI50 (NCI-H522) of the same compound?
Its GI50 is > 100 µM (inactive).

What about the GI50 (MDA-N) of the same compound?
The GI50 was > 100 µM (inactive).

What about the GI50 (K562) of the same compound?
Its GI50 is > 100 µM (inactive).

What about the GI50 (UACC-62) of the same compound?
The GI50 was > 100 µM (inactive).

And the GI50 (SN12C)?
The GI50 was > 100 µM (inactive).

What about the GI50 (T47D) of the same compound?
Its GI50 is > 100 µM (inactive).

And the GI50 (SK-MEL-5)?
The GI50 was > 100 µM (inactive).

And the GI50 (SF-539)?
The GI50 was > 100 µM (inactive).

And the GI50 (OVCAR-8)?
The GI50 was > 100 µM (inactive).

And the GI50 (ACHN)?
The GI50 was > 100 µM (inactive).

And the GI50 (RXF 393)?
Its GI50 is > 100 µM (inactive).

What about the GI50 (U-251) of the same compound?
Its GI50 is > 100 µM (inactive).

And the GI50 (MOLT-4)?
The GI50 was > 100 µM (inactive).

And the GI50 (KM12)?
Its GI50 is > 100 µM (inactive).

And the GI50 (SNB-19)?
The GI50 was > 100 µM (inactive).

What about the GI50 (Malme-3M) of the same compound?
The GI50 was > 100 µM (inactive).

And the GI50 (HOP-92)?
Its GI50 is > 100 µM (inactive).

What about the GI50 (OVCAR-3) of the same compound?
The GI50 was > 100 µM (inactive).

What about the GI50 (NCI-H226) of the same compound?
Its GI50 is > 100 µM (inactive).

And the GI50 (SK-OV-3)?
The GI50 was > 100 µM (inactive).

And the GI50 (PC-3)?
The GI50 was > 100 µM (inactive).

What about the GI50 (SW-620) of the same compound?
The GI50 was > 100 µM (inactive).

What about the GI50 (SR) of the same compound?
Its GI50 is > 100 µM (inactive).

What about the GI50 (SK-MEL-28) of the same compound?
The GI50 was > 100 µM (inactive).

And the GI50 (786-0)?
Its GI50 is > 100 µM (inactive).

What about the GI50 (SNB-75) of the same compound?
Its GI50 is > 100 µM (inactive).

Which GI50 (OVCAR-4) does the source give for `COc1ccc(-c2nc(SCC(=O)N/N=C/c3ccc([N+](=O)[O-])cc3)[nH]c2-c2ccc(OC)cc2)cc1` here?
The GI50 was 39.4 µM (inactive).

And the GI50 (TK-10)?
Its GI50 is 22.3 µM (inactive).

And the GI50 (LOX IMVI)?
The GI50 was 14 µM (inactive).

What about the GI50 (BT-549) of the same compound?
The GI50 was 19.1 µM (inactive).

What about the GI50 (IGROV-1) of the same compound?
Its GI50 is 10.8 µM (inactive).

What about the GI50 (NCI/ADR-RES) of the same compound?
Its GI50 is 19.1 µM (inactive).

And the GI50 (SF-268)?
Its GI50 is 25.7 µM (inactive).

And the GI50 (UACC-257)?
The GI50 was 16.4 µM (inactive).

And the GI50 (EKVX)?
The GI50 was 16.4 µM (inactive).

What about the GI50 (MDA-MB-435) of the same compound?
Its GI50 is 3.24 µM (inactive).

What about the GI50 (HCT-116) of the same compound?
The GI50 was 8.49 µM (inactive).

And the GI50 (HL-60)?
The GI50 was 4.07 µM (inactive).

And the GI50 (NCI-H460)?
The GI50 was 10.3 µM (inactive).

And the GI50 (DU-145)?
The GI50 was 28 µM (inactive).

What about the GI50 (HT-29) of the same compound?
Its GI50 is 8.41 µM (inactive).

What about the GI50 (MDA-MB-231) of the same compound?
Its GI50 is 21.2 µM (inactive).

And the GI50 (UO-31)?
The GI50 was 18.8 µM (inactive).

And the GI50 (HOP-62)?
The GI50 was 16.7 µM (inactive).

And the GI50 (MCF7)?
The GI50 was 4.44 µM (inactive).

And the GI50 (Hs-578T)?
The GI50 was 14.4 µM (inactive).

What about the GI50 (COLO 205) of the same compound?
The GI50 was 2.23 µM (inactive).

And the GI50 (M14)?
Its GI50 is 12.2 µM (inactive).

And the GI50 (A498)?
Its GI50 is 14.3 µM (inactive).

And the GI50 (HCT-15)?
The GI50 was 8.55 µM.

What about the GI50 (RPMI-8226) of the same compound?
The GI50 was 8.91 µM (inactive).

What about the GI50 (A549) of the same compound?
The GI50 was 6.95 µM (inactive).

What about the GI50 (SF-295) of the same compound?
Its GI50 is 8.05 µM (inactive).

What about the GI50 (OVCAR-5) of the same compound?
The GI50 was 16.2 µM (inactive).

And the GI50 (CAKI-1)?
The GI50 was 28.1 µM (inactive).

And the GI50 (NCI-H23)?
Its GI50 is 21.9 µM (inactive).

And the GI50 (NCI-H522)?
The GI50 was 6.95 µM (inactive).

What about the GI50 (MDA-N) of the same compound?
The GI50 was 3.16 µM (inactive).

What about the GI50 (K562) of the same compound?
Its GI50 is 7.45 µM (inactive).

What about the GI50 (UACC-62) of the same compound?
Its GI50 is 7.01 µM (inactive).

What about the GI50 (SN12C) of the same compound?
Its GI50 is 16.6 µM (inactive).

What about the GI50 (T47D) of the same compound?
The GI50 was 15.8 µM (inactive).

What about the GI50 (SK-MEL-5) of the same compound?
Its GI50 is 6.27 µM (inactive).

And the GI50 (SF-539)?
The GI50 was 11.9 µM (inactive).

And the GI50 (OVCAR-8)?
Its GI50 is 17.7 µM (inactive).

What about the GI50 (SK-MEL-2) of the same compound?
The GI50 was 6.47 µM (inactive).

And the GI50 (ACHN)?
Its GI50 is 20.1 µM (inactive).

What about the GI50 (RXF 393) of the same compound?
Its GI50 is 11.4 µM (inactive).

And the GI50 (U-251)?
Its GI50 is 11.7 µM (inactive).

What about the GI50 (MOLT-4) of the same compound?
The GI50 was 7.66 µM (inactive).

And the GI50 (KM12)?
The GI50 was 4.86 µM (inactive).

And the GI50 (SNB-19)?
Its GI50 is 24.4 µM (inactive).

What about the GI50 (Malme-3M) of the same compound?
The GI50 was 17.5 µM (inactive).

And the GI50 (HOP-92)?
The GI50 was 12.6 µM (inactive).

What about the GI50 (OVCAR-3) of the same compound?
The GI50 was 10.4 µM (inactive).

And the GI50 (SK-OV-3)?
Its GI50 is 20.2 µM (inactive).

What about the GI50 (HCC 2998) of the same compound?
The GI50 was 12.1 µM (inactive).

What about the GI50 (PC-3) of the same compound?
The GI50 was 6.49 µM (inactive).

And the GI50 (SW-620)?
Its GI50 is 12.6 µM (inactive).

What about the GI50 (SK-MEL-28) of the same compound?
Its GI50 is 21.7 µM (inactive).

What about the GI50 (786-0) of the same compound?
Its GI50 is 20 µM (inactive).

And the GI50 (SNB-75)?
The GI50 was 15.2 µM (inactive).

And the GI50 (CCRF-CEM)?
The GI50 was 3.18 µM (inactive).
